Our source for the inhibition values is patent US20170057955A1, “Pyridopyrimidinone Compounds for Modulating the Catalytic Activity of Histone Lysine Demethylases (KDMs)” (Dong-A Socio Holdings Co., Ltd., priority 2015, published 2017).

Molecules are shown by their SMILES.

This experiment has as its target T1, Recombinant human JARID1B/KDM5B (Homo sapiens, UniProt Q9UGL1).
T1 construct: purchased Active Motif 31432; host or cells: Sf9 insect cells
As to the kind of experiment: LANCE Ultra TR-FRET JARID1B (KDM5B) demethylase inhibition assay. The format is biochemical. The settings on record: 0.1 uM of test-compounds, FLAG-JARID1B, 500 nM biotinylated H3K4me3 peptide substrate, 30 min at room temperature. The source says: FLAG-tagged JARID1B (also known as KDM5B) protein was screened against 49 compounds. For this compound screening, LANCE Ultra time-resolved fluorescence resonance energy transfer (TR-FRET) assay was employed using a europoium (Eu)-labeled antibody that can specifically recognize mono- or dimethylated peptides (H3K4me2/1) and ULight-streptavidin (ULight-SA), a small molecule fluorescent dye. When irradiated at 340 nm, the energy from the Eu donor is transferred to the ULight acceptor dye which, in turn, emits light primarily at 665 nm. The ratio between the intensity of primary emission at 665 nm and that of secondary emission at […] was used to quantify the level of lysine methylation. As JARID1B removes more methyl moieties from tri-methylated substrate peptides (H3K4me3), the ratio increases until the enzyme reaction is terminated. In case, therefore, the compounds disrupt the enzymatic activity completely, the ratio becomes equal to a background value.
Recombinant human JARID1B/KDM5B (accession number NP_006609) of molecular weight 179.9 KDa was expressed in Sf9 insect cells and contains an N-terminal FLAG tag. The enzyme was obtained from Active Motif (Catalog No. 31432). The tri-methylated histone substrate peptide of purity greater than 95% was a synthetic peptide in which the first 21 amino acids correspond to the human histone H3 sequence with three extra amino acids and a biotin motif (GGK-biotin) linked to the C-terminus [sequence: ART-K(Me3)-QTARKSTGGKAPRKQLA-GGK-biotin-OH], (AnaSpec, Fremont, Calif. Catalog. No. ANA-1413). The reference inhibitor compound tranylcypromine (or trans-2-phenylcyclopropylamine hydrochloride, also known as, 2-PCPA) was purchased from Sigma (St. Louis, Mo. Cat. no. P8511). ULight-labeled streptavidin (ULight-SA, Catalog no. TRF0102), Eu-W1024-labeled anti-methyl-Histone H3 Lysine 4 (H3K4me1-2) Antibody (Catalog no. TRF0402), and LANCE detection buffer 10× (Catalog no. CR97-100) were obtained from PerkinElmer (Montreal, Quebec, Canada). The TR-FRET experiments were carried out in white, low-volume 384-wellplates purchased from PerkinElmer (ProxiPlate_-384 Plus, Catalog no. 6008280).
The TR-FRET signal was measured in the presence both of the bio-H3K4me3 peptide and FLAG-JARID1B by detecting any H3K4me2/1 peptide produced in the assay system. Assays using only the bio-H3K4me2 peptide were served as a positive control. Robust enzymatic progressions were observed by using JARID1B at concentrations ranging from 10 to 30 nM. In a typical TR-FRET experiment, JARID1B was pre-incubated with or without 0.1 uM of test-compounds (containing 1% DMSO final) for 5 min. The enzymatic reactions were initiated by the addition of 500 nM biotinylated H3K4me3 peptide substrate plus 500 uM of 2-OG 25 uM Fe(II) and 2 mM ascorbate. The reaction buffer also contained 50 mM Hepes (pH7.5), 0.01% (v/v) Tween 20, and 50 mM NaCl. The reaction mixture was incubated for 30 min at room temperature before reading on an EnVision plate reader (PerkinElmer, Waltham, Mass.).
On the technique in general: Time-resolved FRET reads energy transfer from a long-lived donor to a nearby acceptor.

T1 sequence (Q9UGL1 whole entry): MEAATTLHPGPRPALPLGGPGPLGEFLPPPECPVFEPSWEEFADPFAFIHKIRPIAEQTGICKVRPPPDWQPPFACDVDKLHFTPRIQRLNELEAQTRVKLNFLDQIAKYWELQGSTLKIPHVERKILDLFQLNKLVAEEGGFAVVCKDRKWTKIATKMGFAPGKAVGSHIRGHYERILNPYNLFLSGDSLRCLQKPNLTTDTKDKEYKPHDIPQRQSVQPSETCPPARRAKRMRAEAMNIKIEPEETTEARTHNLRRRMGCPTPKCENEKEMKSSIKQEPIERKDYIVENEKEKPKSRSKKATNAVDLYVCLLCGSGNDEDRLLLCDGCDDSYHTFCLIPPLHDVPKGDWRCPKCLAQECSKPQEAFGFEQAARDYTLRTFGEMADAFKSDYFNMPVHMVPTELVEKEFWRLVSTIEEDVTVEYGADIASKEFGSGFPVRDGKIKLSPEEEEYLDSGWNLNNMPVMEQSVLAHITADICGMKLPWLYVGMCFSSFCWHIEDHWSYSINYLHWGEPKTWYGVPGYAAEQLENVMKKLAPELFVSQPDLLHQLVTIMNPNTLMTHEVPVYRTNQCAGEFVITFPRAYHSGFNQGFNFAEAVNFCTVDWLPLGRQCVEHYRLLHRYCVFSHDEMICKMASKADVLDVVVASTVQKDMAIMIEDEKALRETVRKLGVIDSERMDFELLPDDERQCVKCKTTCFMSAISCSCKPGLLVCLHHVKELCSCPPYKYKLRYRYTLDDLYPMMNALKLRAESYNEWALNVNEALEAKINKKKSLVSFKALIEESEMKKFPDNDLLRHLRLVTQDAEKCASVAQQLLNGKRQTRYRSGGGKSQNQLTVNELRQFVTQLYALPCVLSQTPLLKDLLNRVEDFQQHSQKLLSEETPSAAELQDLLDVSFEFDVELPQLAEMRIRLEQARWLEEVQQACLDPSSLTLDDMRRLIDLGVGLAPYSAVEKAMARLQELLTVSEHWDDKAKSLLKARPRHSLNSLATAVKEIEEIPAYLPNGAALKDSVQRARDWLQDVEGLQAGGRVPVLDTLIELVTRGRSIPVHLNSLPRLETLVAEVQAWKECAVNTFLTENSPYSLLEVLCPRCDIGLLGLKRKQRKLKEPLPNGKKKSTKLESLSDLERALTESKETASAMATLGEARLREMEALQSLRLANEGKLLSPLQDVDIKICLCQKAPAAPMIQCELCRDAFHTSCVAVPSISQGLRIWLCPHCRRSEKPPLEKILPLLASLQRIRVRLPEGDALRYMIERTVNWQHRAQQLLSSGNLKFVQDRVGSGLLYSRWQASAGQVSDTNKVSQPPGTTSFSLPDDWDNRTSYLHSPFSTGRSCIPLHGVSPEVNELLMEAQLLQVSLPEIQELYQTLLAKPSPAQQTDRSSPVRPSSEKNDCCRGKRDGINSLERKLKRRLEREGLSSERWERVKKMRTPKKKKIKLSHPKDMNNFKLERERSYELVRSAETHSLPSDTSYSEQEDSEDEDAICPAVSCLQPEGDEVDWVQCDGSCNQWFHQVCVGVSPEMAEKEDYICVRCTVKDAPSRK

As to `O=c1[nH]cnc2c(-n3cc(-c4cccc(CCCO)c4)cn3)nccc12` [Compound 7, 8-(4-(3-(3-hydroxypropyl)phenyl)-1H-pyrazol-1-yl)pyrido[3,4-d]pyrimidin-4(3H)-one], the inhibition (commonly the change of the read-out against control, counted positive when it falls) at 0.1 µM is < 20%. The same measure for `O=c1[nH]c(COc2ccc(F)c(Cl)c2)nc2c(-c3csc(NCCCCN4CCCC4)n3)nccc12` [Compound 119, 2-((3-chloro-4-fluorophenoxy)methyl)-8-(2-((4-(pyrrolidin-1-yl)butyl)amino)thiazol-4-yl)pyrido[3,4-d]pyrimidin-4(3H)-one]: 20 to 50%; for `O=c1[nH]c(COc2ccc(F)c(Cl)c2)nc2c(-c3csc(NCCCc4ccccc4Cl)n3)nccc12` [Compound 109, 2-((3-chloro-4-fluorophenoxy)methyl)-8-(2-((3-(2-chlorophenyl)propyl)amino)thiazol-4-yl)pyrido[3,4-d]pyrimidin-4(3H)-one]: < 20%. The same measure for `O=c1[nH]c(COc2ccc(F)c(Cl)c2)nc2c(-c3csc(NCC4CCN(CCO)CC4)n3)nccc12` [Compound 100, 2-((3-chloro-4-fluorophenoxy)methyl)-8-(2-(((1-(2-hydroxyethyl)piperidin-4-yl)methyl)amino)thiazol-4-yl)pyrido[3,4-d]pyrimidin-4(3H)-one]: 20 to 50%; for `Nc1nn(-c2nccc3c(=O)[nH]cnc23)cc1-c1cccc(OCc2ccccc2)c1` [Compound 31, 8-(3-amino-4-(3-(benzyloxy)phenyl)-1H-pyrazol-1-yl)pyrido[3,4-d]pyrimidin-4(3H)-one]: ≥ 50%. The same measure for `NCCNc1nc(-c2nccc3c(=O)[nH]cnc23)cs1` [Compound 44, 8-(2-((2-aminoethyl)amino)thiazol-4-yl)pyrido[3,4-d]pyrimidin-4(3H)-one]: 20 to 50%. Regarding `Cn1cnc(-c2nccc3c(=O)[nH]c(COc4ccc(Cc5ccccc5)cc4)nc23)c1` [Compound 70, 2-((4-benzylphenoxy)methyl)-8-(1-methyl-1H-imidazol-4-yl)pyrido[3,4-d]pyrimidin-4(3H)-one], the inhibition at 0.1 µM lay in the range of 20 to 50%. As for `O=c1[nH]c(COc2ccc(Cc3ccccc3)cc2)nc2c(-c3ccccn3)nccc12` [Compound 67, 2-((4-benzylphenoxy)methyl)-8-(pyridin-2-yl)pyrido[3,4-d]pyrimidin-4(3H)-one], the inhibition at 0.1 µM is 20 to 50%. The same measure for `Nc1nn(-c2nccc3c(=O)[nH]cnc23)cc1-c1cccnc1` [Compound 16, 8-(3-amino-4-(pyridin-3-yl)-1H-pyrazol-1-yl)pyrido[3,4-d]pyrimidin-4(3H)-one]: < 20%; for `O=c1[nH]c(COc2ccc(F)cc2)nc2c(-c3csc(NCCO)n3)nccc12` [Compound 125, 2-((4-fluorophenoxy)methyl)-8-(2-((2-hydroxyethyl)amino)thiazol-4-yl)pyrido[3,4-d]pyrimidin-4(3H)-one]: ≥ 50%. The same measure for `O=c1[nH]c(COc2ccc(F)c(Cl)c2)nc2c(-c3csc(NCC4CCN(C5CCCC5)CC4)n3)nccc12` [Compound 98, 2-((3-chloro-4-fluorophenoxy)methyl)-8-(2-(((1-cyclopentylpiperidin-4-yl)methyl)amino)thiazol-4-yl)pyrido[3,4-d]pyrimidin-4(3H)-one]: 20 to 50%; for `CC(C)N(CCCCCNc1nc(-c2nccc3c(=O)[nH]c(COc4ccc(F)c(Cl)c4)nc23)cs1)C(C)C` [Compound 120, 2-((3-chloro-4-fluorophenoxy)methyl)-8-(2-((5-(diisopropylamino)pentyl)amino)thiazol-4-yl)pyrido[3,4-d]pyrimidin-4(3H)-one]: 20 to 50%; for `O=c1[nH]c(COc2ccc(Cc3ccccc3)cc2)nc2c(-c3nccs3)nccc12` [Compound 66, 2-((4-benzylphenoxy)methyl)-8-(thiazol-2-yl)pyrido[3,4-d]pyrimidin-4(3H)-one]: < 20%. Regarding `CN(C)CCNc1nc(-c2nccc3c(=O)[nH]c(CCc4ccccc4)nc23)cs1` [Compound 162, 8-(2-((2-(dimethylamino)ethyl)amino)thiazol-4-yl)-2-phenethylpyrido[3,4-d]pyrimidin-4(3H)-one], the inhibition at 0.1 µM lay within 20 to 50%. Consider `O=c1[nH]c(COc2ccc(F)c(Cl)c2)nc2c(-c3csc(NCCc4ccccc4Oc4ccccc4)n3)nccc12` [Compound 110, 2-((3-chloro-4-fluorophenoxy)methyl)-8-(2-((2-phenoxyphenethyl)amino)thiazol-4-yl)pyrido[3,4-d]pyrimidin-4(3H)-one], for which the inhibition at 0.1 µM was < 20%. The same measure for `CN1CCN(CCn2cc(-c3cn(-c4nccc5c(=O)[nH]cnc45)nc3N)cn2)CC1` [Compound 30, 8-(3-amino-1′-(2-(4-methylpiperazin-1-yl)ethyl)-1H,1′H-[4,4′-bipyrazol]-1-yl)pyrido[3,4-d]pyrimidin-4(3H)-one]: 20 to 50%; for `O=c1[nH]c(COc2ccc(F)c(Cl)c2)nc2c(-c3nccs3)nccc12` [Compound 74, 2-((3-chloro-4-fluorophenoxy)methyl)-8-(thiazol-2-yl)pyrido[3,4-d]pyrimidin-4(3H)-one]: 20 to 50%; for `CN(C)CCNc1nc(-c2nccc3c(=O)[nH]c(COc4cc(F)cc(F)c4)nc23)cs1` [Compound 130, 2-((3,5-difluorophenoxy)methyl)-8-(2-((2-(dimethylamino)ethyl)amino)thiazol-4-yl)pyrido[3,4-d]pyrimidin-4(3H)-one]: ≥ 50%. The same measure for `Cc1cccc(-c2cnn(-c3nccc4c(=O)[nH]cnc34)c2)c1` [Compound 1, 8-(4-(m-tolyl)-1H-pyrazol-1-yl)pyrido[3,4-d]pyrimidin-4(3H)-one]: < 20%; for `O=c1[nH]c(COc2ccc(F)c(Cl)c2)nc2c(-c3cnccn3)nccc12` [Compound 79, 2-((3-chloro-4-fluorophenoxy)methyl)-8-(pyrazin-2-yl)pyrido[3,4-d]pyrimidin-4(3H)-one]: 20 to 50%; for `Nc1nc(-c2nccc3c(=O)[nH]c(COc4ccc(Cc5ccccc5)cc4)nc23)cs1` [Compound 71, 8-(2-aminothiazol-4-yl)-2-((4-benzylphenoxy)methyl) pyrido[3,4-d]pyrimidin-4(3H)-one]: ≥ 50%. The same measure for `C[C@@H](O)CNc1nc(-c2nccc3c(=O)[nH]cnc23)cs1` [Compound 40, (R)-8-(2-((2-hydroxypropyl)amino)thiazol-4-yl)pyrido[3,4-d]pyrimidin-4(3H)-one]: ≥ 50%; for `O=c1[nH]c(COCc2ccccc2)nc2c(-c3csc(NCC4CCN(Cc5ccccc5)CC4)n3)nccc12` [Compound 145, 2-((benzyloxy)methyl)-8-(2-(((1-benzylpiperidin-4-yl)methyl)amino)thiazol-4-yl)pyrido[3,4-d]pyrimidin-4(3H)-one]: < 20%. For `O=c1[nH]c(COc2ccc(F)c(Cl)c2)nc2c(-c3csc(NCC4CCCO4)n3)nccc12` (stereo not shown) [Compound 85, 2-((3-chloro-4-fluorophenoxy)methyl)-8-(2-(((tetrahydrofuran-2-yl)methyl)amino)thiazol-4-yl)pyrido[3,4-d]pyrimidin-4(3H)-one], the inhibition at 0.1 µM is ≥ 50%.

For `Nc1nn(-c2nccc3c(=O)[nH]cnc23)cc1-c1cnn(C2CCCC2)c1` [Compound 35, 8-(3-amino-1′-cyclopentyl-1H,1′H-[4,4′-bipyrazol]-1-yl)pyrido[3,4-d]pyrimidin-4(3H)-one], the inhibition at 0.1 µM is 20 to 50%.
